Where “and” joins values, the source holds several entries; their conditions need not be identical. Equal entries are not always repeated.
Experiments:
Assay type in all cases: cell-based
Settings in all cases: for fluorescent readings: 24 hours, duplicate wells
TMX2-28 cells = experiment: AlmarBlue fluorescence cell growth test, TMX2-28 cells
Protocol: With that, the 5×10^−3M mixture contains about 0.42×10^−3M of each peptide. Furthermore, mixtures containing equal volumes of peptides SEQ ID NO:2-SEQ ID NO:7, SEQ ID NO:10 and SEQ ID NO:11 were also prepared (equal volumes of said re-feed media) to yield the following final six concentrations: […] With that, the 5×10^−3M mixture contains about […].
(§1) MCF-7 and T47D cells were seeded into 96-well plates at a density of 10,000 cells per well in 90 μL of appropriate culture medium. TMX2-28 cells were seeded into 96-well plates at a density of 5,000 cells per well in 90 μL of appropriate culture medium. Plates were placed in a 37° C., 5% CO2 incubator and cells were allowed to attach to the bottom of the well for 24 hours after which 10 μL of the appropriate refeed medium was added. Each concentration was tested in duplicate in each cell line. […] Cells were then incubated for 24 hours. Subsequently 10 μL of AlmarBlue (Biosource) was added to each well. After three hours, the fluorescence was detected using a Packard Instrument Plate Reader with 535/20 excitation and 590/20 emission filters.

T47D cells = experiment: AlmarBlue fluorescence cell growth test, T47D cells
Protocol: (§2) Re-feed media were prepared to yield the following final six concentrations of each of the 12 peptides: 5×10^−3, 5×10^−4, 5×10^−5, 5×10^−6, 5×10^−7, and 5×10^−8M. […] With that, the 5×10^−3M mixture contains about 0.42×10^−3M of each peptide. […] With that, the 5×10^−3M mixture contains about 0.42×10^−3M of each of said 8 peptides.
as §1

MCF-7 cells = experiment: AlmarBlue fluorescence cell growth test, MCF-7 cells
Protocol: as §2, §1

[1] = 5 × 10^−4 M (mixtures: total concentration), decrease vs DC5 = reduced cell growth
[2] = 5 × 10^−5 M (mixtures: total concentration)
[3] = 5 × 10^−6 M (mixtures: total concentration)
[4] = 5 × 10^−7 M (mixtures: total concentration)
[5] = 5 × 10^−8 M (mixtures: total concentration)
[6] = 5 × 10^−9 M (mixtures: total concentration)

Molecule | fluorescent readings (MCF-7 cells; [1]) | fluorescent readings (MCF-7 cells; [2]) | fluorescent readings (MCF-7 cells; [3]) | fluorescent readings (MCF-7 cells; [4]) | fluorescent readings (MCF-7 cells; [5]) | fluorescent readings (MCF-7 cells; [6]) | fluorescent readings (TMX2-28 cells; [1]) | fluorescent readings (TMX2-28 cells; [2]) | fluorescent readings (TMX2-28 cells; [3]) | fluorescent readings (TMX2-28 cells; [4]) | fluorescent readings (TMX2-28 cells; [5]) | fluorescent readings (TMX2-28 cells; [6]) | fluorescent readings (T47D cells; [1]) | fluorescent readings (T47D cells; [2]) | fluorescent readings (T47D cells; [3]) | fluorescent readings (T47D cells; [4]) | fluorescent readings (T47D cells; [5]) | fluorescent readings (T47D cells; [6]) | further results
c1ccc2c(c1)cc1ccc3cccc4ccc2c1c34 [BaP, Benzo[a]pyrene, reference compound] | – | – | – | – | – | – | – | – | – | – | – | – | – | – | – | – | – | – | effect on proliferation (in words) (TMX2-28 cells; 24 hours incubation): insufficient to decrease the proliferation; effect on proliferation (in words) (T47D cells; 24 hours incubation): insufficient to decrease the proliferation
CC/C(=C(\c1ccccc1)c1ccc(OCCN(C)C)cc1)c1ccccc1 [Tamoxifen, reference compound] | – | – | – | – | – | – | – | – | – | – | – | – | – | – | – | – | – | – | effect on proliferation (in words) (MCF-7 cells; 24 hours incubation): insufficient to decrease the proliferation
SEQIDNO1: synthesised peptide identified in the 10 kDa blood fraction after acupuncture; sequence not printed in the text (ASPVAPLDPLLKYGRGQPVSSASGTTTDLGQ; Derived from human blood sample) | 69131 and 67176 | 65474 and 66009 | 65860 and 64140 | 62613 and 62686 | 63693 and 62463 | 62279 and 60719 | 74129 and 72743 | 73649 and 71774 | 72975 and 71640 | 74503 and 75697 | 75445 and 77164 | 71409 and 71588 | 65814 and 66151 | 64794 and 65757 | 63241 and 63091 | 63036 and 62709 | 62633 and 62689 | 55767 and 59593 | –
SEQIDNO2: synthesised peptide identified in the 10 kDa blood fraction after acupuncture; sequence not printed in the text (KVGAHAGEYGAEALER; Derived from human blood sample) | 68630 and 65876 | 66492 and 66554 | 65617 and 65531 | 63699 and 63627 | 63539 and 63477 | 63298 and 62132 | 70121 and 70743 | 70162 and 68517 | 69083 and 71861 | 72557 and 73134 | 72061 and 73603 | 68910 and 72372 | 66780 and 68474 | 67257 and 66607 | 63525 and 67453 | 64064 and 66021 | 62463 and 63876 | 57744 and 60399 | –
SEQIDNO3: synthesised peptide identified in the 10 kDa blood fraction after acupuncture; sequence not printed in the text (KTFTVTEGSMAGGAWGRL; Derived from human blood sample) | 63831 and 65178 | 64053 and 64928 | 64217 and 64899 | 62452 and 66233 | 61563 and 63132 | 62603 and 61621 | 68963 and 67344 | 69237 and 66454 | 71007 and 67496 | 72558 and 69648 | 72686 and 69197 | 69066 and 70821 | 61359 and 61718 | 66736 and 61724 | 65079 and 58554 | 64329 and 59141 | 61766 and 61031 | 59482 and 59451 | –
SEQIDNO4: synthesised peptide identified in the 10 kDa blood fraction after acupuncture; sequence not printed in the text (KFLQAKFYQLSLERP; Derived from human blood sample) | 64475 and 66716 | 63637 and 66597 | 65699 and 66767 | 64278 and 64885 | 64878 and 64702 | 61356 and 61062 | 68299 and 67310 | 67939 and 68552 | 69917 and 70618 | 70744 and 72469 | 71761 and 72585 | 70255 and 70823 | 65000 and 63427 | 66449 and 66303 | 66808 and 65677 | 65859 and 65314 | 66040 and 64619 | 57800 and 59394 | –
SEQIDNO5: synthesised peptide identified in the 10 kDa blood fraction after acupuncture; sequence not printed in the text (REVQGAFLRFMACLLKGYRV; Derived from human blood sample) | 56679 and 54497 | 61089 and 62458 | 61618 and 65571 | 61677 and 66372 | 62738 and 64281 | 57537 and 60120 | 27056 and 29836 | 62564 and 67140 | 67405 and 69619 | 69438 and 69605 | 70141 and 70591 | 69376 and 67302 | 54287 and 54068 | 61500 and 65566 | 63089 and 64735 | 64043 and 64408 | 62339 and 63402 | 61350 and 61820 | –
SEQIDNO6: synthesised peptide identified in the 10 kDa blood fraction after acupuncture; sequence not printed in the text (RKEGKGERE; Derived from human blood sample) | 69282 and 66723 | 69071 and 69114 | 67961 and 70454 | 66967 and 68329 | 65221 and 65987 | 60855 and 61454 | 68949 and 68566 | 70355 and 69358 | 70389 and 69887 | 71096 and 70512 | 70707 and 71208 | 62308 and 64367 | 60992 and 68394 | 57868 and 68983 | 66902 and 68862 | 65508 and 66620 | 65244 and 64730 | 61392 and 63577 | –
SEQIDNO7: synthesised peptide identified in the 10 kDa blood fraction after acupuncture; sequence not printed in the text (RMSIQCDVWRSKFLASRV; Derived from human blood sample) | 64171 and 62704 | 67257 and 64433 | 66311 and 66105 | 63995 and 67019 | 65755 and 66292 | 60589 and 62763 | 58887 and 60090 | 64931 and 66366 | 68010 and 67591 | 68325 and 70586 | 67109 and 70471 | 62010 and 66328 | 62688 and 60767 | 68041 and 64777 | 66479 and 60908 | 65388 and 63864 | 64353 and 63685 | 64124 and 63134 | –

Reference: US20100204128A1, “NOVEL PEPTIDES” (SANARE INVESTMENT AS, priority 2007, published 2010)
